Test results taken from US20200031866A1, “PEPTIDE INHIBITORS OF SODIUM CHANNELS” (SPYRYX BIOSCIENCES, INC., priority 2016, published 2020).
Square brackets hold non-standard residues; d marks the D form. Ends that are not written are not given here. Nle = CCCC[C@H](N)C(=O)O

T1: alpha-ENaC (Homo sapiens, UniProt P37088)
T1 construct: expressed in transfected cells; host or cells: HEK293T
T1 sequence (P37088 1-669): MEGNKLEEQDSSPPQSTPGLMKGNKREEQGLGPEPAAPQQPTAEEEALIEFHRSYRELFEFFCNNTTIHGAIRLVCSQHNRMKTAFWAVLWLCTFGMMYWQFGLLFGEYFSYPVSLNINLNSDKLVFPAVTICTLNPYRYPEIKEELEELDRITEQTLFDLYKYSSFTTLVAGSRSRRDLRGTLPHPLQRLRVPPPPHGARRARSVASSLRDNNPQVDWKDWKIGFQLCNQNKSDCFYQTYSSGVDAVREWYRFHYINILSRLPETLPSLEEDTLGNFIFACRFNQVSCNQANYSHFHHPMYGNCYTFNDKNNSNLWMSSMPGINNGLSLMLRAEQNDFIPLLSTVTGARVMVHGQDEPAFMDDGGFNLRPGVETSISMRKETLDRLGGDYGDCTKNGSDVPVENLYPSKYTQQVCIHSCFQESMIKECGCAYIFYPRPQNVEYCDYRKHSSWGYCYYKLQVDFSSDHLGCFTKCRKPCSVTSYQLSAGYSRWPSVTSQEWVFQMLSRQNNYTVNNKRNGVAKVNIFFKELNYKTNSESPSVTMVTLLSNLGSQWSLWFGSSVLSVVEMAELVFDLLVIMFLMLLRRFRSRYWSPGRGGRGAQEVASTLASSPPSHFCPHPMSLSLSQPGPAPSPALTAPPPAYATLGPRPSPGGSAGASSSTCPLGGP

T2: alpha-ENaC (Homo sapiens, UniProt P37088+P51168+P51170)
T2 construct: expressed in transfected cells; host or cells: HEK293T
T2 sequence (P37088 1-669): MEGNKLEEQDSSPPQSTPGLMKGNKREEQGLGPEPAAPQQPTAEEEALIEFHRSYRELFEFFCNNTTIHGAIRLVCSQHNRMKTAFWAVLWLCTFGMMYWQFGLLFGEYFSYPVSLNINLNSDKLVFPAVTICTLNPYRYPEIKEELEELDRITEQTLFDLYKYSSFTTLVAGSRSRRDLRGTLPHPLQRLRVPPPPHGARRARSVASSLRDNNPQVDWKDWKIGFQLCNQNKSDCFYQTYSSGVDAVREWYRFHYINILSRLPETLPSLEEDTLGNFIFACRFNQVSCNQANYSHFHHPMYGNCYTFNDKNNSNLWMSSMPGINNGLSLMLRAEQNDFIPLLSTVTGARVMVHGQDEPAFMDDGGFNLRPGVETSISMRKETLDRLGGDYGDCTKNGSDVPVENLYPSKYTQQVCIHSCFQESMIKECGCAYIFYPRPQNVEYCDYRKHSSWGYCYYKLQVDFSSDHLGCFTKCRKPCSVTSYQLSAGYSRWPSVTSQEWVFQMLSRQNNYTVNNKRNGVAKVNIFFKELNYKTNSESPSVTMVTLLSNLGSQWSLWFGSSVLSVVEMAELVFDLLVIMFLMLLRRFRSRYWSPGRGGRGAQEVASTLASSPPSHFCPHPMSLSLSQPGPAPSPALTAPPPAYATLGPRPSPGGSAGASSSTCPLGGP
T2 sequence (P51168 1-640): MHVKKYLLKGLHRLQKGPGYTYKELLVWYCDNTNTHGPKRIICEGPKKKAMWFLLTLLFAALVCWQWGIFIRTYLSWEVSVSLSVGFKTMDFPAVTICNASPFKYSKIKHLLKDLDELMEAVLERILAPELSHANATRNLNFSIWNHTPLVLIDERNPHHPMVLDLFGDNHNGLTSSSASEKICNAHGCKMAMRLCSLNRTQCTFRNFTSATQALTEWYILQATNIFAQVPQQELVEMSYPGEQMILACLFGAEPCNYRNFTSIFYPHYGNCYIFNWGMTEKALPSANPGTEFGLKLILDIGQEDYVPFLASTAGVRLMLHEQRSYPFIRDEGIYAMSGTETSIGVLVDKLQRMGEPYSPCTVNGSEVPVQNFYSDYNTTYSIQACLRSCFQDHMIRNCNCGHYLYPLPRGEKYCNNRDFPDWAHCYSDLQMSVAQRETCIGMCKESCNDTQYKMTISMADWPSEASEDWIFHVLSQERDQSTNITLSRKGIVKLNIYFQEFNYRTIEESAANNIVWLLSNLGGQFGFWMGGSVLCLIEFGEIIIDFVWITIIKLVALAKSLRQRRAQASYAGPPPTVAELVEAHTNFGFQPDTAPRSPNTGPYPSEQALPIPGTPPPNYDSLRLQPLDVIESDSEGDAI
T2 sequence (P51170 1-649): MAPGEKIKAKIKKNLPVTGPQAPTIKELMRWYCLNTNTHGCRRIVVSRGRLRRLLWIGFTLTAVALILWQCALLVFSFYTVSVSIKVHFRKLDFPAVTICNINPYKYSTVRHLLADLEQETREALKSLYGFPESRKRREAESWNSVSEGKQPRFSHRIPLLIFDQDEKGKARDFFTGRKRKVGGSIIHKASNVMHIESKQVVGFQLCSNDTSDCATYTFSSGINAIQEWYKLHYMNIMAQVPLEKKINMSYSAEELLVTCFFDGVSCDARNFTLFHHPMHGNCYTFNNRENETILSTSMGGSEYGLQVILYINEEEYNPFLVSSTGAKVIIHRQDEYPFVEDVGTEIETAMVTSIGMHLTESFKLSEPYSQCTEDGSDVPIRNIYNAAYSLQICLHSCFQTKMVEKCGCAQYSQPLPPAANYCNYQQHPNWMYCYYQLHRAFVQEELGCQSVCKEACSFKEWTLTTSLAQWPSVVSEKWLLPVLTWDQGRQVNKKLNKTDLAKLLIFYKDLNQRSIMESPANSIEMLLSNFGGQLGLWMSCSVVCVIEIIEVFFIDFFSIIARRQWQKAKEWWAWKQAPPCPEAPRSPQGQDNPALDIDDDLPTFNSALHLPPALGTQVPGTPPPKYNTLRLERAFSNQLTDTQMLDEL

T3: ENaC (Homo sapiens, UniProt P37088+P51168+P51170)
T3 construct: Peptides were added mucosally to HBECs at 30 μM and ASL height measured 3 h later by XZ-confocal microscopy; endogenous in cells; host or cells: primary human bronchial epithelial cultures (HBECs) at air-liquid interface
T3 sequence (P37088 1-669): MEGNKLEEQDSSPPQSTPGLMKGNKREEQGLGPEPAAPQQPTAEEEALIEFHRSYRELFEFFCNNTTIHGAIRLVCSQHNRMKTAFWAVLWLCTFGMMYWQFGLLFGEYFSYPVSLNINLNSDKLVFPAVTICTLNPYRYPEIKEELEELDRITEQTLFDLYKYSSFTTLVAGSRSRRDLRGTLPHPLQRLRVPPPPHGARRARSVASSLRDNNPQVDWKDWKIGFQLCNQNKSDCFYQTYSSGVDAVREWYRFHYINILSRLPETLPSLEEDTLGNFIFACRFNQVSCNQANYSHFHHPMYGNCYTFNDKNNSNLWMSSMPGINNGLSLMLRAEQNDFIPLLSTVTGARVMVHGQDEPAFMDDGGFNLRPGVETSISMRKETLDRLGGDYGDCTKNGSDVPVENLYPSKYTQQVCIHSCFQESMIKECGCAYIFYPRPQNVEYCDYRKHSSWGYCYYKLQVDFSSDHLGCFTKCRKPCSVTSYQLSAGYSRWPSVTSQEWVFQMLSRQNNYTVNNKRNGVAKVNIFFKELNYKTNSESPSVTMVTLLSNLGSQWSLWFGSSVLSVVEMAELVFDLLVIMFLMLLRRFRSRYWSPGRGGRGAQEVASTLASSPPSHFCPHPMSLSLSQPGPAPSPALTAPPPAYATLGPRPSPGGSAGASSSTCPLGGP
T3 sequence (P51168 1-640): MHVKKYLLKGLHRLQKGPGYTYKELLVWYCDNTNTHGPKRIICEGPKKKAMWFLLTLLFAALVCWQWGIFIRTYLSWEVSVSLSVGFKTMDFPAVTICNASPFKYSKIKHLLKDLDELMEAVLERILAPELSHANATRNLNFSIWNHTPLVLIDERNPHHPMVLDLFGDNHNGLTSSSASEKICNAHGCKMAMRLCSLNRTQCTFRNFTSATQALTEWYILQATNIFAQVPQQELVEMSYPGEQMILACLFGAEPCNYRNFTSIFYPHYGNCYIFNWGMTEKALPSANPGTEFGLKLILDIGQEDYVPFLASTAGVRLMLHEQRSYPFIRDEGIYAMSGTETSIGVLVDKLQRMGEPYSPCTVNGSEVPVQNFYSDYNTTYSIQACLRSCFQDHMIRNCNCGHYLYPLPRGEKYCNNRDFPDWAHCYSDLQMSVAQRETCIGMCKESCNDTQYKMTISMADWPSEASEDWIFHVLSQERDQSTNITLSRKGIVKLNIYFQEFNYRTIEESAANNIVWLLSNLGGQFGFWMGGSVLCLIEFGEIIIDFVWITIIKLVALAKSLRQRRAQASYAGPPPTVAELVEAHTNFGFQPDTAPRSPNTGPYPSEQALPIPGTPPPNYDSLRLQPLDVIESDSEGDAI
T3 sequence (P51170 1-649): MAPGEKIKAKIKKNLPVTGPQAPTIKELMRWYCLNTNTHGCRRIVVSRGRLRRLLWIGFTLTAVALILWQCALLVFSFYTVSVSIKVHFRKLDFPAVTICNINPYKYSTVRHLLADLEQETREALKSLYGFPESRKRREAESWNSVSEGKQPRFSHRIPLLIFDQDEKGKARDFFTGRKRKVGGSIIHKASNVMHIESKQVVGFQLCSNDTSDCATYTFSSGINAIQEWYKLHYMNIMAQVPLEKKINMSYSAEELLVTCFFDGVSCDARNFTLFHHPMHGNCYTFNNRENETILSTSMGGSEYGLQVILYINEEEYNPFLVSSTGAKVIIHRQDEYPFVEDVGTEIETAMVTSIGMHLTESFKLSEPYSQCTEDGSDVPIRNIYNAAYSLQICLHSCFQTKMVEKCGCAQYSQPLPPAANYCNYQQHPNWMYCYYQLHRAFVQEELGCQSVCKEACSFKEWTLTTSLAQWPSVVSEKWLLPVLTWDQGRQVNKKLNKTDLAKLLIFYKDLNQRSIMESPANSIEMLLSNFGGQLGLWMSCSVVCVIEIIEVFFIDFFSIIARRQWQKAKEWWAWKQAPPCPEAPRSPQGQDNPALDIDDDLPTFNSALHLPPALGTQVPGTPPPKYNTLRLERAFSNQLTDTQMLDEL


Assays:
alpha-ENaC [1] = molecular target: T1, alpha-ENaC; experiment: Internalization of alpha-ENaC in HEK293T cells, GFP-tagged alpha-ENaC co-expressed only with gamma ENaC and no beta-ENaC; format: cell-based; settings: FIG. 6
Experimental: […] Am J Physiol Lung Cell Mol Physiol. 2013 December; 305(12):L990-L1001. doi: 10.1152/ajplung.00103.2013. Epub 2013 October; Garland et al. Proc Natl Acad Sci USA. 2013 Oct. 1; 110(40):15973-8. doi: 10.1073/pnas.1311999110. Epub 2013 Sep. 16.; Tan et al. J Physiol. 2014 Dec. 1; 592(Pt 23):5251-68). Twenty-four hours later, peptide or vehicle control were added at t=0 and fluorescence was read using a Tecan M1000 plate reader 3 h later. Fluorescence was read at 488 nm (excitation)/510 nm (emission).

proteases = format: in vitro ADME
alpha-ENaC [2] = molecular target: T2, alpha-ENaC; experiment: Internalization of alpha-ENaC in HEK293T cells, GFP-tagged alpha-ENaC co-expressed with beta and gamma ENaC; format: cell-based; settings: beta-ENaC co-expressed, FIGS. 5A-5U
Description: HEK293T cells were transfected with gfp-αENaC where gfp was fused at the N-terminus of ENaC and unlabeled βENaC and γENaC using lipofectamine in 384 well plates as per the manufacturer's instructions and as published previously (see, e.g., Hobbs et al. Am J Physiol Lung Cell Mol Physiol. 2013 December; 305(12):L990-L1001. doi: 10.1152/ajplung.00103.2013. Epub 2013 October; Garland et al. Proc Natl Acad Sci USA. 2013 Oct. 1; 110(40):15973-8. doi: 10.1073/pnas.1311999110. Epub 2013 Sep. 16.; Tan et al. J Physiol. 2014 Dec. 1; 592(Pt 23):5251-68). Twenty-four hours later, peptide or vehicle control were added at t=0 and fluorescence was read using a Tecan M1000 plate reader 3 h later. Fluorescence was read at 488 nm (excitation)/510 nm (emission).

Heat stability = format: physicochemical
ENaC = molecular target: T3, ENaC; settings: previously demonstrated (Hobbs et al., 2013); cited from earlier work
[3] = molecular target: epithelial Na+ channel (ENaC), endogenous in human bronchial epithelial cultures (human, UniProt P37088 1-669; P51168 1-640; P51170 1-649); experiment: cell-based or functional assay

Molecule | effect on alpha-ENaC (alpha-ENaC [1]) | susceptibility to proteolytic degradation (proteases) | reduction of alpha-ENaC / functional receptor on the cell surface (alpha-ENaC [2]) | heat stability (Heat stability) | EC50 for inhibition of ENaC (ENaC) | duration of ENaC inhibition following a single dose (ENaC) | IC50, dose response of ASL height on airway cells [3]
H-GGLPVPLDQTLPLNVNPA-NH2 [SEQ ID NO:1] | no effect | resistant to proteolysis | effective in reducing alpha-ENaC | heat-stable | sub micromolar | up to 24 h | 
[dA][dA]LP[Nle]PLDQT[dA][dA]-NH2 (N-terminus assumed; SMILES CCCC[C@H](NC(=O)[C@@H]1CCCN1C(=O)[C@H](CC(C)C)NC(=O)[C@@H](C)NC(=O)[C@@H](C)N)C(=O)N1CCC[C@H]1C(=O)N[C@@H](CC(C)C)C(=O)N[C@@H](CC(=O)O)C(=O)N[C@@H](CCC(N)=O)C(=O)N[C@H](C(=O)N[C@H](C)C(=O)N[C@H](C)C(N)=O)[C@@H](C)O) [aaLPNlePLDQTaa (SEQ ID NO:5)] |  |  |  |  |  |  | 0.03 µM
